Like-named read-outs stand apart in the source and are kept apart here. Starred links: 1 amine or outer side, 2 acyl side, 3 side chain; linkers in the order of their positions; H or OH if unused. Positions of bridges follow the written chain, without caps; N, C: chain ends. Non-standard residues stand in square brackets, D forms with d. Residues, ends and D or L forms follow the SMILES beside them. Groups on a side chain read outwards from the residue. *: point of attachment. Trp(1-Me) = Cn1cc(C[C@H](N)C(=O)O)c2ccccc21; C18 diacid = O=C(O)CCCCCCCCCCCCCCCCC(=O)*; C16 diacid = O=C(O)CCCCCCCCCCCCCCC(=O)*; γGlu = O=C(O)[C@H](CCC(=O)[*:2])N[*:1]; AEEA = NCCOCCOCC(=O)O; Sar = CNCC(=O)O

The experiment concerns classical complement pathway. The experiment is described as follows: In vitro haemolysis assay (inhibition of classical complement pathway). Format: cell-based, human. The procedure, abridged: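 Compound dilutions preincubated 15 min at room temperature with diluted human serum (titrated per batch for 70-90% maximal haemolysis), then antibody-sensitized sheep RBC (10^7/well) added for 30 min at 37 °C in Tris/casein buffer, pH 7.4. Stopped with EDTA; haemolysis read at 405 nm; IC50 by 4PL fit.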

Setting [1] is: human serum, sensitized sheep red blood cells, Table 3, given as upper bounds, read-out: IC50, inhibition of hemolysis.
The mark [2] stands for this setting: human serum, sensitized sheep red blood cells, Table 4, valine 3 vs isoleucine 3 pairs, read-out: CP hemolysis IC50.

Usually IC50 stands for the concentration at which inhibition is half-maximal. `CC[C@H](C)[C@H](NC(C)=O)C(=O)N[C@H]1CSSC[C@@H](C(=O)N[C@H](C(N)=O)[C@@H](C)O)NC(=O)[C@H](CCCNC(=N)N)NC(=O)[C@H](Cc2c[nH]cn2)NC(=O)[C@H](C)NC(=O)CNC(=O)[C@H](Cc2c[nH]c3ccccc23)NC(=O)[C@H](CC(=O)O)NC(=O)[C@H](CCC(N)=O)NC(=O)[C@H](Cc2c[nH]c3ccccc23)NC(=O)[C@H](C(C)C)NC1=O` [Compound 4W9A, reference compound]: the IC50 is 250 nM (human serum, sensitized sheep red blood cells, Table 2, read-out: CP hemolysis IC50) and less than 500 nM under setting [1].

Turning to `CC[C@H](C)[C@@H]1NC(=O)[C@@H](NC(=O)[C@H](Cc2ccccc2)NC(=O)[C@H](CCC(=O)O)NC(=O)[C@H](CO)NC(C)=O)CSSC[C@@H](C(=O)N(C)CC(=O)N[C@@H](CCC(=O)O)C(=O)NCC(=O)N[C@@H](CCC(=O)O)C(=O)NCCOCCOCC(=O)N[C@@H](CCC(=O)O)C(=O)N[C@@H](CO)C(=O)N[C@@H](CCCCNC(=O)CC[C@H](NC(=O)CNC(=O)CC[C@H](NC(=O)CCCCCCCCCCCCCCCCC(=O)O)C(=O)O)C(=O)O)C(N)=O)NC(=O)[C@H](CCCNC(=N)N)NC(=O)[C@H](Cc2c[nH]cn2)NC(=O)[C@H](CCC(=O)O)NC(=O)CNC(=O)[C@H](Cc2c[nH]c3ccccc23)NC(=O)[C@H](CC(=O)O)NC(=O)[C@H](CCC(N)=O)NC(=O)[C@H](Cc2cn(C)c3ccccc23)NC1=O` [Compound 140] (Ac-SEFCI[Trp(1-Me)]QDWGEHRC[Sar]EGE[AEEA]ESK([γGlu-Gly-γGlu-C18 diacid])-NH2; disulfide 4-14), the IC50 under setting [1] is less than 100 nM.

With `CC[C@H](C)[C@@H]1NC(=O)[C@@H](NC(=O)[C@H](Cc2ccc(O)cc2)NC(C)=O)CSSC[C@@H](C(=O)N[C@H](C(=O)N[C@@H](CCC(=O)O)C(=O)N[C@@H](CO)C(=O)NCC(=O)N[C@@H](C)C(N)=O)[C@@H](C)O)NC(=O)[C@H](CCCNC(=N)N)NC(=O)[C@H](Cc2c[nH]cn2)NC(=O)[C@H](CCC(=O)O)NC(=O)CNC(=O)[C@H](Cc2c[nH]c3ccccc23)NC(=O)[C@H](CC(=O)O)NC(=O)[C@H](CCC(N)=O)NC(=O)[C@H](Cc2cn(C)c3ccccc23)NC1=O` [Compound 69] (Ac-YCI[Trp(1-Me)]QDWGEHRCTESGA-NH2; disulfide 2-12), under setting [1], the concentration for half-maximal inhibition (IC50) was less than 100 nM.

Turning to `CC[C@H](C)[C@H](NC(C)=O)C(=O)N[C@H]1CSSC[C@@H](C(=O)N[C@H](C(=O)N[C@@H](CCC(=O)O)C(=O)NCC(=O)N[C@@H](CCCCNC(=O)COCCOCCNC(=O)COCCOCCNC(=O)CC[C@H](NC(=O)CCCCCCCCCCCCCCC(=O)O)C(=O)O)C(N)=O)[C@@H](C)O)NC(=O)[C@H](CCCNC(=N)N)NC(=O)[C@H](Cc2c[nH]cn2)NC(=O)[C@H](CCC(=O)O)NC(=O)CNC(=O)[C@H](Cc2c[nH]c3ccccc23)NC(=O)[C@H](CC(=O)O)NC(=O)[C@H](CCC(N)=O)NC(=O)[C@H](Cc2c[nH]c3ccccc23)NC(=O)[C@H]([C@@H](C)CC)NC1=O` [Compound 93] (Ac-ICIWQDWGEHRCTEGK([AEEA-AEEA-γGlu-C16 diacid])-NH2; disulfide 2-12), under setting [1], the 50% inhibitory concentration (IC50) is less than 500 nM.

In the case of `CC[C@H](C)[C@@H]1NC(=O)[C@@H](NC(=O)[C@H](Cc2ccccc2)NC(=O)[C@H](CCC(=O)O)NC(=O)[C@H](CO)NC(C)=O)CSSC[C@@H](C(=O)N[C@H](C(=O)N[C@@H](CCC(=O)O)C(=O)NCC(=O)N[C@@H](CCC(=O)O)C(=O)NCCOCCOCC(=O)N[C@@H](CCC(=O)O)C(=O)N[C@@H](CO)C(=O)N[C@@H](CCCCNC(=O)CC[C@H](NC(=O)CCCCCCCCCCCCCCCCC(=O)O)C(=O)O)C(N)=O)[C@@H](C)O)NC(=O)[C@H](CCCNC(=N)N)NC(=O)[C@H](Cc2c[nH]cn2)NC(=O)[C@H](CCC(=O)O)NC(=O)CNC(=O)[C@H](Cc2c[nH]c3ccccc23)NC(=O)[C@H](CC(=O)O)NC(=O)[C@H](CCC(N)=O)NC(=O)[C@H](Cc2cn(C)c3ccccc23)NC1=O` [Compound 142] (Ac-SEFCI[Trp(1-Me)]QDWGEHRCTEGE[AEEA]ESK([γGlu-C18 diacid])-NH2; disulfide 4-14), under setting [1], the half-maximal inhibitory concentration (IC50) is less than 100 nM.

As to `CC[C@H](C)[C@H](NC(C)=O)C(=O)N[C@H]1CSSC[C@@H](C(=O)N[C@H](C(=O)N[C@@H](CCC(=O)O)C(N)=O)[C@@H](C)O)NC(=O)[C@H](CCCNC(=N)N)NC(=O)[C@H](Cc2c[nH]cn2)NC(=O)[C@H](CCC(=O)O)NC(=O)CNC(=O)[C@H](Cc2c[nH]c3ccccc23)NC(=O)[C@H](CC(=O)O)NC(=O)[C@H](CCC(N)=O)NC(=O)[C@H](Cc2c[nH]c3ccccc23)NC(=O)[C@H]([C@@H](C)CC)NC1=O` [Compound 26] (Ac-ICIWQDWGEHRCTE-NH2; disulfide 2-12), under setting [1], the half-maximal inhibitory concentration (IC50) is less than 100 nM.

For the compound `CC[C@H](C)[C@H](NC(C)=O)C(=O)N[C@H]1CSSC[C@@H](C(=O)N[C@H](C(N)=O)[C@@H](C)O)NC(=O)[C@H](CCCNC(=N)N)NC(=O)[C@H](Cc2c[nH]cn2)NC(=O)[C@H](CCC(=O)O)NC(=O)CNC(=O)[C@H](Cc2c[nH]c3ccccc23)NC(=O)[C@H](CC(=O)O)NC(=O)[C@H](CCC(N)=O)NC(=O)[C@H](Cc2c[nH]c3ccccc23)NC(=O)[C@H]([C@@H](C)CC)NC1=O` [Compound 2] (Ac-ICIWQDWGEHRCT-NH2; disulfide 2-12), the IC50 reads like this: (Table 5, different residues at position 3 of Ac-IC(1)XWQDWGEHRC(1)T-NH2, read-out: IC50, CP hemolysis) less than 100 nM; under setting [1], less than 100 nM; under setting [2], 94 nM.

As for `CC[C@H](C)[C@@H]1NC(=O)[C@@H](NC(=O)[C@H](Cc2ccccc2)NC(=O)[C@H](CCC(=O)O)NC(=O)[C@H](CO)NC(C)=O)CSSC[C@@H](C(=O)N[C@@H](CO)C(=O)N[C@@H](CCC(=O)O)C(=O)N[C@@H](C)C(N)=O)NC(=O)[C@H](CCCNC(=N)N)NC(=O)[C@H](Cc2c[nH]cn2)NC(=O)[C@H](CCC(=O)O)NC(=O)CNC(=O)[C@H](Cc2c[nH]c3ccccc23)NC(=O)[C@H](CC(=O)O)NC(=O)[C@H](CCC(N)=O)NC(=O)[C@H](Cc2cn(C)c3ccccc23)NC1=O` [Compound 84] (Ac-SEFCI[Trp(1-Me)]QDWGEHRCSEA-NH2; disulfide 4-14), for the setting “read-out: IC50, inhibition of hemolysis”, the IC50 is less than 100 nM.

Take `CC[C@H](C)[C@@H]1NC(=O)[C@@H](NC(=O)[C@H](Cc2ccc(O)cc2)NC(=O)[C@H](CCC(=O)O)NC(=O)[C@H](CO)NC(C)=O)CSSC[C@@H](C(=O)N(C)CC(=O)N[C@@H](CCC(=O)O)C(=O)N[C@@H](C)C(N)=O)NC(=O)[C@H](CCCNC(=N)N)NC(=O)[C@H](Cc2c[nH]cn2)NC(=O)[C@H](CCC(=O)O)NC(=O)CNC(=O)[C@H](Cc2c[nH]c3ccccc23)NC(=O)[C@H](CC(=O)O)NC(=O)[C@H](CCC(N)=O)NC(=O)[C@H](Cc2cn(C)c3ccccc23)NC1=O` [Compound 71] (Ac-SEYCI[Trp(1-Me)]QDWGEHRC[Sar]EA-NH2; disulfide 4-14): the half-maximal inhibitory concentration (IC50) under setting [1] is less than 100 nM.

Regarding `CC[C@H](C)[C@H](NC(C)=O)C(=O)N[C@H]1CSSC[C@@H](C(=O)N[C@H](C(N)=O)[C@@H](C)O)NC(=O)[C@H](CCCNC(=N)N)NC(=O)[C@H](Cc2c[nH]cn2)NC(=O)[C@H](CCC(=O)O)NC(=O)CNC(=O)[C@H](Cc2c[nH]c3ccccc23)NC(=O)[C@H](CCC(=O)O)NC(=O)[C@H](CCC(N)=O)NC(=O)[C@H](Cc2c[nH]c3ccccc23)NC(=O)[C@H]([C@@H](C)CC)NC1=O` [Compound 16] (Ac-ICIWQEWGEHRCT-NH2; disulfide 2-12), under setting [1], the IC50 is less than 100 nM.

With `CC[C@H](C)[C@H](NC(C)=O)C(=O)N[C@H]1CSSC[C@@H](C(=O)N[C@H](C(N)=O)[C@@H](C)O)NC(=O)[C@H](CCCNC(=N)N)NC(=O)[C@H](Cc2c[nH]cn2)NC(=O)[C@H](CCCNC(=N)N)NC(=O)CNC(=O)[C@H](Cc2c[nH]c3ccccc23)NC(=O)[C@H](CC(=O)O)NC(=O)[C@H](CCC(N)=O)NC(=O)[C@H](Cc2c[nH]c3ccccc23)NC(=O)[C@H]([C@@H](C)CC)NC1=O` [Compound 18] (Ac-ICIWQDWGRHRCT-NH2; disulfide 2-12), under setting [1], the 50% inhibitory concentration (IC50) was less than 100 nM.

Regarding `CC[C@H](C)[C@H](NC(C)=O)C(=O)N[C@H]1CSSC[C@@H](C(=O)N[C@H](C(N)=O)[C@@H](C)O)NC(=O)[C@H](CO)NC(=O)[C@H](Cc2c[nH]cn2)NC(=O)[C@H](C)NC(=O)CNC(=O)[C@H](Cc2c[nH]c3ccccc23)NC(=O)[C@H](CC(=O)O)NC(=O)[C@H](CCC(N)=O)NC(=O)[C@H](Cc2c[nH]c3ccccc23)NC(=O)[C@H]([C@@H](C)CC)NC1=O` [Compound 19] (Ac-ICIWQDWGAHSCT-NH2; disulfide 2-12), the IC50 is less than 250 nM under setting [1] and 140 nM under setting [2].

Turning to `CC[C@H](C)[C@H](NC(C)=O)C(=O)N[C@H]1CSSC[C@@H](C(=O)N[C@H](C(=O)N[C@@H](CCC(=O)O)C(=O)NCC(=O)N[C@@H](CCCCNC(=O)COCCOCCNC(=O)COCCOCCNC(=O)CC[C@H](NC(=O)CCCCCCCCCCCCCCCCC(=O)O)C(=O)O)C(N)=O)[C@@H](C)O)NC(=O)[C@H](CCCNC(=N)N)NC(=O)[C@H](Cc2c[nH]cn2)NC(=O)[C@H](CCC(=O)O)NC(=O)CNC(=O)[C@H](Cc2c[nH]c3ccccc23)NC(=O)[C@H](CC(=O)O)NC(=O)[C@H](CCC(N)=O)NC(=O)[C@H](Cc2c[nH]c3ccccc23)NC(=O)[C@H]([C@@H](C)CC)NC1=O` [Compound 96] (Ac-ICIWQDWGEHRCTEGK([AEEA-AEEA-γGlu-C18 diacid])-NH2; disulfide 2-12), the IC50 under setting [1] was less than 1000 nM.

As to `CC[C@H](C)[C@@H]1NC(=O)[C@@H](NC(=O)[C@H](Cc2ccc(O)cc2)NC(=O)[C@H](CCC(=O)O)NC(=O)[C@H](CO)NC(C)=O)CSSC[C@@H](C(=O)N(C)CC(=O)N[C@@H](CCC(=O)O)C(=O)NCC(=O)N[C@@H](C)C(=O)N[C@@H](CCCCNC(=O)COCCOCCNC(=O)CC[C@H](NC(=O)COCCOCCNC(=O)CNC(=O)CC[C@H](NC(=O)CCCCCCCCCCCCCCCCC(=O)O)C(=O)O)C(=O)O)C(N)=O)NC(=O)[C@H](CCCNC(=N)N)NC(=O)[C@H](Cc2c[nH]cn2)NC(=O)[C@H](CCC(=O)O)NC(=O)CNC(=O)[C@H](Cc2c[nH]c3ccccc23)NC(=O)[C@H](CCC(=O)O)NC(=O)[C@H](CCC(N)=O)NC(=O)[C@H](Cc2cn(C)c3ccccc23)NC1=O` [Compound 122] (Ac-SEYCI[Trp(1-Me)]QEWGEHRC[Sar]EGAK([AEEA-γGlu-AEEA-Gly-γGlu-C18 diacid])-NH2; disulfide 4-14), the half-inhibitory concentration (IC50) under setting [1] was less than 500 nM.

These data come from patent publication US11965039B2, “Compstatin analogues and their medical uses” (priority 2018, dated 2024).
